Tests used:
[1] = tested on: U87MG glioblastoma tumors; assay: U87MG glioblastoma tumor xenograft model (tumor growth inhibition); type: in vivo, athymic nude mice; details: for decrease of mean tumor volume compared to vehicle-treated group: Day 21, p<0.001
Procedure: The U87MG glioblsatoma cell line (Piedmont Research Center LLC) expresses the c-Met receptor and responds to Human Growth Factor (HGF). This study investigated whether treatment with an inhibitor of c-Met is efficacious against the U87MG glioblastoma tumor xenograft model. This study utilized a tumor growth inhibition (TGI) assay to test per os (p.o.) compound monotherapy in groups of fifteen nude mice. A control group was treated with vehicle, 20% Hydroxypropyl Beta-Cyclodextrin (HPBCD). All treatments began on Day 1 (D1) in mice bearing established subcutaneous (s.c.) U87MG tumors.
Female athymic nude mice (Harlan) were 10-11 weeks old with a BW range of 18.1-25.0 g on D1 of the study. The animals were fed ad libitum water (reverse osmosis, 1 ppm Cl) and NIH 31 Modified and Irradiated Lab Diet® consisting of 18.0% crude protein, 5.0% crude fat, and 5.0% crude fiber. The mice were housed on irradiated ALPHA-dri® Bed-o-cobs® Laboratory Animal Bedding in static microisolators on a 12-hour light cycle at 21-22° C. (70-72° F.) and 40-60% humidity. All animals were housed in a Laboratory Animal Medicine facility that is fully accredited by the American Association for Assessment and Accreditation of Laboratory Animal Care (AAALAC). All procedures involving animals were conducted in compliance with the NIH Guide for the Care and Use of Laboratory Animals and all protocols were approved by an Internal Animal Care and Use Committee (IACUC).
Xenografts were initiated from U87MG human glioblastoma tumor fragments maintained by serial transplantation in athymic nude mice. Each test mouse received a subcutaneous U87MG tumor fragment (1 mm^3) implanted in the right flank, and the growth of tumors was monitored as the average size approached 200 mm^3. Twelve days later, on Day 1 of the study, the animals were sorted into 4 groups (n=12-15 mice/group) with individual tumor volumes ranging from 172-352 mm^3 and group mean tumor volumes of 216 mm^3. Tumor volume was calculated using the formula:
[formula] where w=width and l=length in mm of the tumor. Tumor weight may be estimated with the assumption that 1 mg is equivalent to 1 mm^3 of tumor volume. Drug Treatment
Dosing solutions of compounds of the present invention were prepared fresh weekly in a vehicle consisting of 20% Hydroxypropyl Beta-Cyclodextrin (HPBCD) in water. In all groups, the dosing volume of 0.2 mL/20-g mouse was scaled to the body weight of each animal. Doses were given to allow for the HCl salt form of the compound.
TGI was calculated from the difference between the median tumor volumes of vehicle-treated and drug-treated mice, expressed as a percentage of the median tumor volume of the vehicle-treated control group, by the following relation:
The MTV (n) is defined as the median tumor volume (MTV) for the number of animals, n, remaining in the study on that day.
Animals were weighed daily for the first five days of the study and then twice weekly. The mice were examined frequently for overt signs of any adverse, drug-related side effects, and clinical signs of toxicity were recorded when observed. Acceptable toxicity is defined as a group mean body-weight (BW) loss of less than 20% during the study, and not more than one treatment-related (TR) death among ten animals. A death is classified as TR if it is attributable to treatment side effects as evidenced by clinical signs and/or necropsy, or due to unknown causes during the dosing period or within 10 days of the last dose. A death is classified as non treatment-related (NTR) if there is no evidence that the death was related to drug side effects. A death is classified as non treatment-related unknown (NTRu) if the cause of death is unknown.
The Mann-Whitney U-test, for analysis of medians, was used to determine the statistical significance of the difference between the MTVs. Prism 3.03 (GraphPad) for Windows was used for the statistical analyses and graphic presentations. […]

c-Met [2] = target: T1, c-Met (Homo sapiens, UniProt P08581); assay: Delfia autophosphorylation kinase assay on the c-Met; type: biochemical; parameters: The purified His6 tagged cytoplasmic domain of c-Met was diluted to a concentration of 500 ng/ml; host or cells: Sf9 insect cells (baculovirus, pFastBacHTa); details: His6 tagged cytoplasmic domain of c-Met, 1 μM ATP; read-out: cMet Delfia autophos IC-50
Outline: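 Time-resolved fluorescence tracked autophosphorylation of the His6-tagged c-Met cytoplasmic domain, dispensed at 500 ng/ml onto nickel-chelate plates. Reaction buffer held 1 μM ATP, 10 mM MgCl2, vanadate and DTT at pH 8.0, for 1 h at room temperature.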
Target sequence in this assay (P08581 956-1390 limits assumed): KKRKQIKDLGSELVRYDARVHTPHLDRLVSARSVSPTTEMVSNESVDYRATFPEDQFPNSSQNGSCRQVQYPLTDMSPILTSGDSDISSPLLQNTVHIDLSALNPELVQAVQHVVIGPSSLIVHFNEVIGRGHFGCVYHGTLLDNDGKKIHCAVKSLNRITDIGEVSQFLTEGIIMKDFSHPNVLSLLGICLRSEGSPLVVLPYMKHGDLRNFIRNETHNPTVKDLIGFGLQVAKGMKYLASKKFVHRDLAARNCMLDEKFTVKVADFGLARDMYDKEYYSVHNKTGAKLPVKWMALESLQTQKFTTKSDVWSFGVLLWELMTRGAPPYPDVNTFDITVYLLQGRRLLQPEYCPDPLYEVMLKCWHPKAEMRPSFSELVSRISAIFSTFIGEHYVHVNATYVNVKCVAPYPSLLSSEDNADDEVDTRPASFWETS

HepG2 cells = assay: HepG2 cellular scatter assay (HGF-induced, RT-CES impedance); type: cell-based; details: Homo sapiens, 40 ng/ml HGF
Excerpt: Human Growth Factor (HGF) and its receptor (c-Met) are involved in cellular motility. Indeed HGF was also identified as Scatter Factor (SF), based on its powerful motility effect on certain cell types. Cellular motility is critical for pathological processes of oncologic disease, most importantly, the establishment of metastatic lesions distant from the primary tumor and formation of new blood vessels (angiogenesis). One therapeutic hypothesis is that this movement of cell types may be blunted or eliminated by the use of c-Met kinase inhibitors. (See: Jiang, W. C, Martin, T. A., Parr, C., Davies, G., Matsumoto, K. and Nakamura, T. Critical Reviews in Oncology/Hematology 53 (2005) 35-69. and references cited therein.) It should also be noted that cellular motility, especially with regard to angiogenesis, is important in other disease states.
Cellular scatter was measured with a Real-Time Cell Electronic Sensing system (RT-CES), from ACEA Biosciences Inc. (San Diego, Calif.). The RT-CES system uses specialized RT-ACE microtiter plates (cat:RCD96, ACEA Biosciences Inc.) to non-invasively quantify cellular status in real-time. The interaction of cells with the surface of the plates, which are integrated with microelectronic sensor arrays, leads to the generation of a cell-electrode impedance response. A higher impedance value indicates more cell attachment and thus less cellular scatter.
50 μl of Assay Media (MEM supplemented with 10% FBS, 2 mM L-glutamine, 1.5 g/L sodium bicarbonate, 1 mM sodium pyruvate, and 0.1 mM non-essential amino acids) was added into 96-well RT-ACE plates and recorded for 30 min on the RT-CES. 50 μl of HepG2 cells (cat: HB-8065, ATCC) were added into each well ([…]). The plate was read in RT-CES and incubated for 20-24 hours. After the 20-24 hours incubation, 50 μl of Assay Media containing different concentrations of testing compounds was added into each well and incubated for 1 hour. Finally, 50 μl of Assay Media containing 160 ng/ml of HGF was added into each well (40 ng/ml in 200 μl). The plate was incubated and read in the RT-CES for 20-24 hours, with a record time every 15 minutes. The positive control was HGF without compounds and negative control was no-HGF without compound. All determinations were performed in duplicate wells and IC50 values were calculated using GraphPad Prism software (GraphPad Software; San Diego, Calif.).

c-Met [3] = target: T1, c-Met; assay: Cell based ELISA assay for HGF stimulated c-Met phosphorylation in S114 cells; parameters: expressed in transfected cells; host or cells: S114 (murine NIH 3T3 derived); details: read-out: c-Met Cell ELISA IC-50
Target sequence in this assay (P08581 25-1390): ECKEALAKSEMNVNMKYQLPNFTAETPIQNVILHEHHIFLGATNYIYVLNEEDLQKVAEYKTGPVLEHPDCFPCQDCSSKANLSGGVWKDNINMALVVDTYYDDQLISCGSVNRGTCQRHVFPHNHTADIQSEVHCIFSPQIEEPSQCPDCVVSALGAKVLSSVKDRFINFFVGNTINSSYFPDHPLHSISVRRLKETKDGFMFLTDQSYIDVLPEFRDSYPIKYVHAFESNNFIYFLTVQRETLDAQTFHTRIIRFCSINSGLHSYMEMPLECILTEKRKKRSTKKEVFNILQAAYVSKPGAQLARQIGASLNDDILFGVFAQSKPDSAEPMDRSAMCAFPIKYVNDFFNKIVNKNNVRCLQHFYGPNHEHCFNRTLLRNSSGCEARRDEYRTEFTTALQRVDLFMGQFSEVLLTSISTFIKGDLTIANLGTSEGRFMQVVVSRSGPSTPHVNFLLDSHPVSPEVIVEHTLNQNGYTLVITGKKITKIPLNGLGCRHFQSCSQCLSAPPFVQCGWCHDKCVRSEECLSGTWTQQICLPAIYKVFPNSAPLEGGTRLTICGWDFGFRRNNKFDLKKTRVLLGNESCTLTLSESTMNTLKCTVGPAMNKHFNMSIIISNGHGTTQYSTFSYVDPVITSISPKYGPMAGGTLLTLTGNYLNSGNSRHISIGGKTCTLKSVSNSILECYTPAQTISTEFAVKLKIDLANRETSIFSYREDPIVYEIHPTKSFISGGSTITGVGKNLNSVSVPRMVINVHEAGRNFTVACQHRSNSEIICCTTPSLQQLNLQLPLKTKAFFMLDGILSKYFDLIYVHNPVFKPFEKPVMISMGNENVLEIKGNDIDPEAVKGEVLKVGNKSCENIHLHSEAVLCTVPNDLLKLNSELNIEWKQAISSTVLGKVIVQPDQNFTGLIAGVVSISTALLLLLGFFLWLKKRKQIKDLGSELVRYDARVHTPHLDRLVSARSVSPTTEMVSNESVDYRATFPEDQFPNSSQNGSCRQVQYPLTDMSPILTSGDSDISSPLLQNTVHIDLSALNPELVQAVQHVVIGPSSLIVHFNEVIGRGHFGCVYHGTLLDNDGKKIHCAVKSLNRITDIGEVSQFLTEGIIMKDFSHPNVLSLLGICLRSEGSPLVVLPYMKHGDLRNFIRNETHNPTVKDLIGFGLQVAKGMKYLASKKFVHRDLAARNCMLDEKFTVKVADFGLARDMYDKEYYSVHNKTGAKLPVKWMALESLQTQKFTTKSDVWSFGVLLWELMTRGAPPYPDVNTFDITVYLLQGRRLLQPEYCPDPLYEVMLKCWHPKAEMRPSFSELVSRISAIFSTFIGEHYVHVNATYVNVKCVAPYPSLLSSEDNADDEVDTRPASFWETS

Structure (SMILES) | decrease of mean tumor volume compared to vehicle-treated group ([1]; 30 mg/kg p.o. b.i.d., 21 consecutive days) [%] | decrease of mean tumor volume compared to vehicle-treated group ([1]; 50 mg/kg p.o. b.i.d., 21 consecutive days) [%] | tumor regression ([1]; 50 mg/kg p.o. b.i.d., 21 days) | inhibition of growth of U87MG tumors ([1]; 30 and 50 mg/kg p.o. b.i.d., 21 consecutive days) | IC50 (c-Met [2]) [nM] | IC50 (HepG2 cells) [nM] | IC50 (c-Met [3]) [nM]
Cn1cc(-c2ccc3nnc(Cc4ccc5ncccc5c4)n3n2)cn1 [Example 1, 6-[6-(1-Methyl-1H-pyrazol-4-yl)-[1,2,4]triazolo[4,3-b]pyridazin-3-ylmethyl]-quinoline] | 66 | 97 | Tumor regression was observed | statistically significant, dose-dependent inhibition of growth |  |  | 
FC(F)(c1ccc2ncccc2c1)c1nnc2ccc(-c3ccncc3)nn12 [Example 60, 6-[Difluoro-(6-pyridin-4-yl-[1,2,4]triazolo[4,3-b]pyridazin-3-yl)-methyl]-quinoline] |  |  |  |  | 1 | 287 | 12
Cc1cc(-c2ccc3nnc(C(F)(F)c4ccc5ncccc5c4)n3n2)ccn1 [Example 86, 6-{Difluoro-[6-(2-methyl-pyridin-4-yl)-[1,2,4]triazolo[4,3-b]pyridazin-3-yl]-methyl}-quinoline] |  |  |  |  | 2.8 | 715 | 34
CN1CCN(C(=O)c2ccc(-c3ccc4nnc(C(F)(F)c5ccc6ncccc6c5)n4n3)s2)CC1 [Example 97, {5-[3-(Difluoro-quinolin-6-yl-methyl)-[1,2,4]triazolo[4,3-b]pyridazin-6-yl]thiophen-2-yl}-(4-methyl-piperazin-1-yl)-methanone] |  |  |  |  | 3 | 1160 | 3
CS(=O)(=O)N1CCN(C(=O)c2ccc(-c3ccc4nnc(C(F)(F)c5ccc6ncccc6c5)n4n3)s2)CC1 [Example 98, {5-[3-(Difluoro-quinolin-6-yl-methyl)-[1,2,4]triazolo[4,3-b]pyridazin-6-yl]-thiophen-2-yl}-(4-methanesulfonyl-piperazin-1-yl)-methanone] |  |  |  |  | 2 | 64 | 4
CS(=O)(=O)n1cc(-c2ccc3nnc(C(F)(F)c4ccc5ncccc5c4)n3n2)cn1 [Example 99, 6-{Difluoro-[6-(1-methanesulfonyl-1H-pyrazol-4-yl)-[1,2,4]triazolo[4,3-b]pyridazin-3-yl]-methyl}-quinoline] |  |  |  |  | 2 | 1100 | 34
FC(F)(c1ccc2ncccc2c1)c1nnc2ccc(-c3ccnc(Cl)c3)nn12 [Example 100b, 6-{[6-(2-Chloro-pyridin-4-yl)-[1,2,4]triazolo[4,3-b]pyridazin-3-yl]-difluoro-methyl}-quinoline] |  |  |  |  | 2 |  | 34
N#Cc1cc(-c2ccc3nnc(C(F)(F)c4ccc5ncccc5c4)n3n2)ccn1 [Example 101, 4-[3-(Difluoro-quinolin-6-yl-methyl)-[1,2,4]triazolo[4,3-b]pyridazin-6-yl]-pyridine-2-carbonitrile] |  |  |  |  | 1 |  | 120
CN1CCN(C(=O)c2ccc(-c3ccc4nnc(C(F)(F)c5ccc6occc6c5)n4n3)s2)CC1 [Example 102, {5-[3-(Benzofuran-5-yl-difluoro-methyl)-[1,2,4]triazolo[4,3-b]pyridazin-6-yl]-thiophen-2-yl}-(4-methyl-piperazin-1-yl)-methanone] |  |  |  |  | 3 |  | 79
CN1CCN(C(=O)c2ccc(-c3ccc4nnc(C(F)(F)c5ccc6c(c5)CCO6)n4n3)s2)CC1 [Example 103, (5-{3-[(2,3-Dihydro-benzofuran-5-yl)-difluoro-methyl]-[1,2,4]triazolo[4,3-b]pyridazin-6-yl}-thiophen-2-yl)-(4-methyl-piperazin-1-yl)-methanone] |  |  |  |  | 4 |  | 210
CCCc1ncc(-c2ccc3nnc(C(F)(F)c4ccc5ncccc5c4)n3n2)s1 [Example 104, 6-{Difluoro-[6-(2-propyl-thiazol-5-yl)-[1,2,4]triazolo[4,3-b]pyridazin-3-yl]-methyl}-quinoline] |  |  |  |  | 2 | 543 | 37
